Patent US10016373B2, “CB2 receptor ligands for the treatment of psychiatric disorders” (priority 2013, dated 2018)
Like-named read-outs stand apart in the source and are kept apart here.

Key:
Assay type in all cases: in vivo
mice [1] = assay: Prepulse inhibition (PPI) of the startle reflex
Protocol: Attention Test: Prepulse Inhibition (PPI) of the Startle Reflex
A weak audible stimulus (74-90 dB tone) “prepulse” was used to inhibit the acoustic startle response to a subsequent strong audible stimulus (120 dB tone) “pulse”. Reduced prepulse inhibition of the startle reflex (PPI) was taken as an index of the positive symptoms of deficits in attention.
PPI was assessed similarly to the method described by Varty et al. (2001). Mice were placed in a startle chamber and allowed to acclimatize for 5 minutes A loudspeaker produced startling “pulse” at 120 dB and thereafter 65 dB background white noise or one of […] 20 ms duration “prepulses” at 74, 78, 82, 86, and 90 dB followed after 20 ms by a 40 ms startling “pulse” at 120 dB. The response of each mouse was recorded and stored by a computer. Each test session lasted for 11 minutes and consisted of 5 presentations of each of the prepulse/pulse sound stimuli (total of 30 or 35) presented in random order and separated by 15 second intervals. The magnitude of prepulse inhibition was calculated as percentage PPI=[1-(acoustic startle for prepulse+pulse)/(acoustic startle for pulse alone)]×100.

mice [2] = assay: Impulsivity, Elevated Plus Maze; details: age 13 weeks, postnatal CB2 agonist2 5 mg/kg
Protocol: The treatment consisted of a single intravenous administration of the vehicle or the M1 solution Impulsivity was tested 24 hours after treatment.
Impulsivity as measured by the paucity of time spent on the two anxiety-provoking, open arms (as opposed to the two enclosed arms) of an “Elevated Plus Maze” was used as a parameter of negative symptoms of schizophrenia (Josselyn and Vaccarino, 1998). The plus maze was elevated 50 cm above the table top. Behavior of each mouse was recorded for 5 minutes by a video camera and scored using the “EthoVision” software (Noldus), measuring the number of entries as well as the amount of time spent in each arm, open or closed. Reduced time spent in the closed arms indicated reduced anxiety. Increased time spent in the opened arms indicated increased risk behavior (hyperactive and impulsive).
The treatment consisted of a single i.p. administration of the vehicle or the M1 solution. The duration ratio open arm/close arm and the frequency ratio open arm/close arm in the Elevated Plus Maze were evaluated 24 hours after treatment with either vehicle or M1.

mice [3] = system: mice
Protocol: For the treated mice, one of the two CB2 receptor-selective agonist solutions: either CB2 agonist2 solution or H-308 solution, was administered by intravenous administration to mice pups to induce ADHD-like behavior and/or obsessive-compulsive-like behavior as a murine model for ADHD and OCD. […] In order to test the effect of non-agonist or mixed-type agonist/inverse agonist CB2 receptor ligands on hyperactivity, the effects of M1 were studied.
Open-Field Test (Crossing and Rearing, Defecation, Grooming)
Mice were assessed for hyperactive behavior on postnatal days 16-20, 26-39, at age 13 weeks and at age 23 weeks. Mice were placed in the center of a transparent glass cage 30×40×31 cm divided into squares of 7.5×7.5 cm. The number of squares crossed and the rearing activity were evaluated for 8 min.

mice [4] = assay: Vocal tics, ultrasonic voice recording
Protocol: Mice were recorded at the age of 13 or 23-25 weeks with an ultrasonic voice recorder (Noldus). Mice were recorded at the age of 29 days with an ultrasonic voice recorder (AviSoft). Single mice were recorded in a cage for 10 min (according to sex and type of treatment). The number and duration of events at 20-40 kHz and at 50-70 kHz were analyzed. In some experiments, 24 h following M1 treatment, each mouse was recorded for 10 min before and after stress. Stress was induced by incubation for 10-15 min in a mouse restrainer.

mice [5] = assay: Motor tics in the open field test

Structure (SMILES): C=C1CC/C=C(\C)CC[C@@H]2[C@@H]1CC2(C)C [CB2 agonist2, beta-caryophyllene]
- percent pre-pulse inhibition (mice [1]; female mice treated with CB2 agonist2 at postnatal days 5-13, FIG. 3B): decreased
- acoustic startle (mice [1]; model mice vs control mice at the age of 8 weeks, FIG. 3A): not significantly different
- ratio of duration in the open arm/close arm (mice [2]; females, FIG. 6A): increased
- ratio of duration in the open arm/close arm (mice [2]; males+females, FIG. 6B): increased
- grooming (mice [3]; CB2 agonist2 0.5 mg/kg at the age of 3-15 days, M1 5 mg/kg on day 29, measured on day 39, stressed female mice, FIG. 13A): increased
- feces secretion (mice [3]; CB2 agonist2 0.5 mg/kg at the age of 3-15 days, M1 5 mg/kg on day 29, measured on day 39, stressed female mice, FIG. 13B): increased
- rearing (mice [3]; CB2 agonist2 0.5 mg/kg at the age of 3-15 days, M1 on day 29, measured on day 36, unstressed female mice, FIG. 12A): increased
- ambulation (mice [3]; CB2 agonist2 0.5 mg/kg at the age of 3-15 days, M1 on day 29, measured on day 39, stressed female mice, FIG. 12B): increased
- ambulation (mice [3]; CB2 agonist2 0.5 mg/kg at the age of 3-15 days, measured on day 26, unstressed females, FIG. 11A): increased
- rearing (mice [3]; CB2 agonist2 0.5 mg/kg at the age of 3-15 days, measured on day 26, unstressed females, FIG. 11C): increased
- ambulation (mice [3]; model mice 5 mg/kg CB2 agonist2 postnatal days 1-5, M1 5 mg/kg single i.p. at 13 weeks, 30 minutes after treatment, FIG. 5A): increase
- rearing (mice [3]; model mice 5 mg/kg CB2 agonist2 postnatal days 1-5, M1 5 mg/kg single i.p. at 13 weeks, 30 minutes after treatment, FIG. 5B): increase
- secretion of feces (mice [3]; model mice 5 mg/kg CB2 agonist2 postnatal days 5-13, M1 5 mg/kg single i.p. at 23 weeks, FIG. 4C): decreased
- grooming duration (mice [3]; model mice 5 mg/kg CB2 agonist2 postnatal days 5-13, M1 5 mg/kg single i.p. at 23 weeks, tested 48 hours after treatment, FIG. 4A): increased
- grooming frequency (mice [3]; model mice 5 mg/kg CB2 agonist2 postnatal days 5-13, M1 5 mg/kg single i.p. at 23 weeks, tested 48 hours after treatment, FIG. 4B): increased
- ambulation (mice [3]; open field test at postnatal days 16-19, 5 mg/kg CB2 agonist2 at postnatal days 5-13, FIG. 1A): increased
- rearing (mice [3]; open field test at postnatal days 16-19, 5 mg/kg CB2 agonist2 at postnatal days 5-13, FIG. 1B): increased
- ambulation (mice [3]; open field test at postnatal days 16-19, 10 mg/kg CB2 agonist2 at postnatal days 5-13, FIG. 1C): increased
- rearing (mice [3]; open field test at postnatal days 16-19, 10 mg/kg CB2 agonist2 at postnatal days 5-13, FIG. 1D): increased
- number of vocal events (mice [4]; 20-40 KHz, day 29, female mice, CB2 agonist2 0.5 mg/kg at the age of 3-15 days, M1 5 mg/kg on day 29, FIG. 14A): increased
- duration of vocals (mice [4]; 20-40 KHz, day 29, female mice, CB2 agonist2 0.5 mg/kg at the age of 3-15 days, M1 5 mg/kg on day 29, FIG. 14B): increased
- number of vocal events (mice [4]; female mice 23-25 weeks, 20-40 KHz, stress, CB2 agonist2 5 mg/kg postnatal days 5-13, M1 given to model mice, FIG. 7A): increased
- total duration of vocal events (mice [4]; female mice 23-25 weeks, 20-40 KHz, stress, CB2 agonist2 5 mg/kg postnatal days 5-13, M1 given to model mice, FIG. 7B): increased
- mean duration of vocal events (mice [4]; female mice 23-25 weeks, 20-40 KHz, stress, CB2 agonist2 5 mg/kg postnatal days 5-13, M1 given to model mice, FIG. 7C): increased
- number of vocal events (mice [4]; female mice 23-25 weeks, 50-70 KHz, stress, CB2 agonist2 5 mg/kg postnatal days 5-13, M1 given to model mice, FIG. 8A): increased
- total duration of vocal events (mice [4]; female mice 23-25 weeks, 50-70 KHz, stress, CB2 agonist2 5 mg/kg postnatal days 5-13, M1 given to model mice, FIG. 8B): increased
- mean duration of vocal events (mice [4]; female mice 23-25 weeks, 50-70 KHz, stress, CB2 agonist2 5 mg/kg postnatal days 5-13, M1 given to model mice, FIG. 8C): increased
- total duration of vocal events (mice [4]; male mice 23-25 weeks, 20-40 KHz, before stress, CB2 agonist2 5 mg/kg postnatal days 5-13, M1 given to model mice, FIG. 9A): increased
- mean duration of vocal events (mice [4]; male mice 23-25 weeks, 20-40 KHz, before stress, CB2 agonist2 5 mg/kg postnatal days 5-13, M1 given to model mice, FIG. 9B): increased
- total duration of vocal events (mice [4]; male mice 23-25 weeks, 50-70 KHz, before stress, CB2 agonist2 5 mg/kg postnatal days 5-13, M1 given to model mice, FIG. 10A): increased
- mean duration of vocal events (mice [4]; male mice 23-25 weeks, 50-70 KHz, before stress, CB2 agonist2 5 mg/kg postnatal days 5-13, M1 given to model mice, FIG. 10B): increased

Structure (SMILES): CCCCCCC(C)(C)c1cc(OC)c([C@@H]2C=C(CO)[C@@H]3C[C@H]2C3(C)C)c(OC)c1 [HU-308, [(1R,2R,5R)-2-[2,6-dimethoxy-4-(2-methyloctan-2-yl)phenyl]-7,7-dimethyl-4-bicyclo[3.1.1]hept-3-enyl]methanol]
- abnormal motor tics/head twitches (mice [5]; HU-308 5 mg/kg during postnatal days 5-13, age of 12 weeks, open field test): induced
- Number of tics, Total (mice [5]; HU-308 5 mg/kg postnatal days 5-13, age 12 weeks, total over the recording): 18
- percent pre-pulse inhibition (mice [1]; female mice injected with HU-308 at postnatal days 5-13, FIG. 3D): decreased
- percent pre-pulse inhibition (mice [1]; male mice injected with HU-308 at postnatal days 5-13, FIG. 3C): decreased
- hyperactivity (mice [3]; age of 3 months, 0.1 mg/kg HU-308, M1 5 mg/kg in gavage 30 minutes before the experiment, FIGS. 17A-B): induced
- ambulation (mice [3]; open field test at postnatal days 16-19, 5 mg/kg HU-308 at postnatal days 5-13, FIG. 2A): increased
- rearing (mice [3]; open field test at postnatal days 16-19, 5 mg/kg HU-308 at postnatal days 5-13, FIG. 2B): increased
